In patent US20060045883A1, “Anti-cancer vaccines” (priority 2004, published 2006):
Several values for one entry are separate records, joined by “and”; a condition that tells them apart may be missing. Identical values can stand only once.

Assays:
[1] = system: HLA-A2 transfected K562 leukemic cell line; assay: Killing of leukemic cell line by CCNE1 peptide-stimulated CTL lines; type: cell-based, human
From the text: Thus, each peptide-specific CTLs can recognize both peptides with HLA-A2, but the immunogenicity of each peptide is different between individuals. Moreover, one of 4 CCNE1144-152-stimulated CTL lines which killed CCNE1144-152-pulsed T2 cell killed HLA-A2 transfected K562 leukemic cell line which is over-expressing cyclin E1 protein, but not non-transfected K562 leukemic cell line. Thus, CCNE1144-152-specific CTL can distinguish leukemic cell lines from normal PBMCs. From the data, it was concluded that cyclin E1/E2 derived peptides are potential tumor-antigens, because 1) cyclin E1/E2 are highly over-expressed in hematological malignancy, 2) cyclin E1/E2 peptides can sufficiently bind to HLA-A2 to stimulate CTL and 3) CCLE1144-152 specific CTL preferentially kills leukemic cell lines HLA-A2 restrictively.

HLA-A2 = target: T1, HLA-A2 (Homo sapiens, UniProt P04439, D140Y/D185E/D98H/E176V/E277Q/G131W/G231S/I119V/I121R/I166T/I218V/L300P/L318F/N151K/N90K/P208A/P217A/Q86G/Q94H/R138H/R169H/T345S); assay: Peptide-binding assay: stabilization of HLA-A2 on the surface of T2 cells, compared to PR1
T1 construct: measure HLA-A2.1 surface expression on the A2+ T2 cell line coated with the peptide; host or cells: T2 cells
From the text: (§1) Nonameric peptides derived from cyclin E1 and cyclin E2 and predicted to bind to the HLA-A2 allele have similar amino acid sequences, differing only at position 7. Thus, the binding of CCNE1144-152 (cyclin E1 derived) and CCNE2144-152 (cyclin E2 derived) was compared to that of PR1 by a peptide-binding assay. The ability of CCNE1144-152 and CCNE2144-152 to stabilize HLA-A2 on the surface of T2 cells was almost the same as that of PR1 (FI CCNE1144-152/FI PR1=1.008, FI CCNE2144-152/FI PR1=1.189). […] In 3 of 7 donors, CCNE1144-152-stimulated CTL lines killed both CCNE1144-152 and CCNE 2144-152-pulsed T2 cells but not non-peptide-pulsed T2 cells and irrelevant peptide-pulsed T2 cells. In 4 of 7 same donors, CCNE2144-152-stimulated CTL lines killed both CCNE2144-152 and CCNE1144-152-pulsed T2 cells but not non-peptide-pulsed T2 cells and irrelevant peptide-pulsed T2 cells.

peptide-pulsed T2 cells = assay: Elicitation of cyclin E peptide-specific CTL with peptide-pulsed T2 cells; type: cell-based, human; conditions: PBMCs from 7 HLA-A2 positive normal donors
From the text: as §1

HLA-A2.1 = HLA-A2.1 (Homo sapiens, UniProt P04439, D140Y/D185E/D98H/E176V/E277Q/G131W/G231S/I119V/I121R/I166T/I218V/L300P/L318F/N151K/N90K/P208A/P217A/Q86G/Q94H/R138H/R169H/T345S); assay: HLA-A2.1 surface expression on peptide-coated T2 cells by indirect flow cytometry (BB7.2); type: binding; conditions: for Median Channel of Fluorescence of HLA-A2 Expression on T2: peptide-coated T2 cells, background HLA-A2 22; for surface HLA-A2.1 expression on peptide-pulsed T2 cells: compared with T2 cells with no added peptide / positive control influenza peptide
[2] = system: PR1-CTL from a healthy donor; assay: Annexin V apoptosis of PR1-CTL challenged with peptide-pulsed T2 cells; type: cell-based, human; conditions: for apoptosis of high avidity PR1-CTL: T2 cells pulsed with 20 μM peptide, Annexin V 16 to 18 hr
From the text: High PR1 concentration and proteinase 3-overexpressing CML cells induce apoptosis of high avidity PR1-specific CTL. […] All high avidity PR1-CTL exposed to high dose PR1 were dead after 36 to 48 hr of co-culture.

T2 cells = assay: Peptide-specific cytotoxicity of peptide-elicited CTL lines against peptide-loaded T2 cells; conditions: T2 cells loaded with the same peptide; 4-hr assay, varying E:T
Description: CTL cytotoxicity assay. A semiautomated minicytotoxicity assay was used to determine specific lysis as described previously (Molldrem, 2000; Molldrem et al., 1996). Briefly, effector cells were prepared in doubling dilutions from 6×10^3 to 25×10^3 cells/well and were plated in 40 μl, 60-well Terasaki trays (Robbins Scientific, Sunnyvale, Calif., USA) with six replicates per dilution. Target cells (T2 cells, marrow-derived leukemic cells, or BM from a healthy donor) at a concentration of 2×10^6 cells/ml were stained with 10 μg/ml of Calcein-AM (Molecular Probes Inc.) for 60 min at 37° C. After washing three times in CM plus 10% AB, target cells were resuspended at 10^5 cells/ml, and 10^3 target cells in 10 μl medium were added to each well containing effector cells. Wells with target cells alone and medium alone were used for maximum (max) and minimum (min.) fluorescence emission, respectively. After 4 hr incubation at 37° C. in 5% CO2, 5 μl FluoroQuench (One Lambda Inc., Canoga Park, Calif., USA) was added to each well, and the trays were centrifuged for 1 min at 60 g before measurement of fluorescence using an automated CytoFluor II plate reader (PerSeptive Biosystems, Framingham, Mass., USA). The percentage of lysis was calculated as follows: % lysis={1−[(mean experimental mission−mean min.)/(mean max−mean min.)]}×100%.
Induction of Primary CTL responses to peptides. These peptides were next used to stimulate T cells specific for peptide-coated targets. PBMC from a normal healthy donor heterozygous for HL-A2.1 were stimulated with peptide-pulsed T2 cells. […] Briefly, T2 cells (which co-express the costimulatory molecule B7.1) were washed 3 times in serum-free RPMI culture media supplemented with penicillin/streptomycin and glutamine (CM) and incubated with peptide at 20 μg/mL for 2 hr in CM. The peptide loaded T2 cells were then irradiated with 7500 cGy, washed once, and suspended with freshly isolated PBMC at a 1:1 ratio in CM supplemented with 10% human serum (HS) (Sigma, St. Louis, Mo.). After 7 days in culture, a second stimulation was performed and the following day, 60 IU/mL of recombinant human interleukin-2 (rhIL2) (Biosource International, Camarillo, Calif.) was added. After 14 days in culture a third stimulation was performed, followed on day 15 by addition of rhIL-2. A fourth stimulation was performed on day 21 followed on day 22 by the addition of rhIL2. After a total of 27 days in culture, the peptide-stimulated T cells were harvested and tested for peptide-specific cytotoxicity toward Calcein AM-labeled T2 cells, leukemia cell lines, and fresh human leukemia cells.
The five MPO peptides discussed above, were used to stimulate T cells specific for peptide-coated targets. […]

[3] = Cytotoxicity of peptide-elicited CTL lines against fresh myeloid leukemia marrow and normal marrow; type: cell-based, human
From the text: (§2) PR1 specific CTL preferentially lyse human myeloid leukemia cells. It was next determined whether the PR1-specific CTL line was capable of lysing allogeneic human myeloid leukemia cells from HLA-A2.1 positive individuals. As controls, two cell lines expressing low levels of Pr3 were used: HLA-A2.1 transfected K562 cells and U937 cell line which lack HLA-A2.1 and would therefore be incapable of presenting peptides in an HLA-A2.1-restricted manner. Cryopreserved bone marrow cells from patients P1-P4, and marrow cells from a healthy normal volunteer (D2, a bone marrow donor for an allogeneic bone marrow transplant performed on patient P3) were thawed and used as targets for the PR1-specific CTL line.
(§3) It was next determined whether the MY2 and MY4-specific CTL lines were capable of lysing allogeneic human myeloid leukemia cells from HLA-A2.1 positive individuals. The targets were BM cells from pre-transplant HLA-A2.1-positive AML patients. As controls, BM cells from HLA-A2.1-negative AML patients, BM from HLA-A2.1-positive healthy donors and two cell lines expressing low levels of MPO were used: HLA-A2.1 transfected K562 cells and the U937 cell line which lacks HLA-A2.1 and would therefore be incapable of presenting peptides in an HLA-A2.1-restricted manner.

[4] = system: human myeloid leukemia cells; assay: as above; type: cell-based
From the text: as §2, §3

[5] = system: AML colony-forming units (CFU-GM); assay: Colony inhibition assay with MY4 peptide-pulsed CTL; type: cell-based, human
From the text: In contrast there was no inhibition of CFUGM from normal marrow, D1 and D2, the corresponding HLA identical marrow donors for P1 and P2.

[6] = system: HMy2.CIR-A2 cells transfected with Pr3; assay: Lysis of Pr3-transfected B cells by PR1 specific CTL; type: cell-based, human; conditions: E:T 25:1
Description: Expression of proteinase 3 following transfection into and HMy2.CIR and HMy2.CIR-A2 cells. […] The parental HMy2.CIR cell line, which has lost expression of HLA-A and -B, and the HLA-A2.1-transfected HMy2.CIR cells (named HMy2.CIR-A2), were both transfected with Pr3 as described below.
Ten million HMy2.CIR (ATCC, Rockville, Md.), or 10 million HMy2.CIR-A2 cells were each washed in phosphate buffered saline (PBS) and re-suspended in 0.8 mL of ice-cold PBS and put into an electroporation cuvette with 20 μg of circular plasmid DNA. The mixture was exposed to an electric pulse of 320 volts at 960 microF and incubated on ice for 10 min. Cells were then added to 10 mL of pre-warmed CM. The following day, the CM was replaced. On day 2, cells were grown under selection conditions using 200 μg/mL Zeocin. Following one week of selection, the cells were subcloned by limiting dilution under Zeocin selection, and 6 clones were isolated.
HMy.2.CIR-A2 cells transfected with Pr3 are susceptible to lysis by PR1 specific CTL. It was next determined whether the transfected HMy2.CIR-A2 cells could be lysed by PR1 specific CTL. The PR1 specific CTL were elicited in the manner previously described, and after 22 days in culture were combined at a 25:1 E:T ratio with HMy2.CIR-A2 transfected either with the Pr3-containing vector pRTZ.2, or the empty vector containing the reporter gene, CAT. […]

[7] = system: human myeloid leukemia cells; assay: Cytotoxicity of peptide-elicited CTL lines against fresh myeloid leukemia marrow and normal marrow; type: cell-based; remark: listed apart in the source
[8] = system: P3-HMy.CIR-A2 target cells; assay: Proliferation (BrDU incorporation) of PR1-specific CTL lines with P3-transfected B cells; type: cell-based, human; conditions: CTL lines from two healthy donors
From the text: (§4) The leukemia-associated antigen PR1 is derived from both proteinase 3 and neutrophil elastase proteins. The inventors have shown that killing of leukemia cells by PR1-specific CTL correlates with P3 overexpression. However, the PR1 sequence is also contained within neutrophil elastase (NE), which is also aberrantly expressed in leukemia cells. To determine whether PR1 is processed and presented from either protein, P3- and NE-transfected B cells were used as target cells in a proliferation assay with PR1-specific T cells. Full-length P3 and NE cDNA was cloned from the promyelocytic HL-60 cell line based on published sequences. The sequences were subcloned into an EGFP-containing vector (pCMS-EGFP) with a CMV promoter to drive constitutive expression. The B cell line, HMy-CIR, previously stably transfected with the HLA-A*0201 gene, was transfected with P3-pCMS-EGFP and NE-pCMS-EGFP by electroporation for 24 hr. GFP-expressing cells (P3-HMy.CIR-A2 and NE-HMy.CIR-A2, respectively) were selected by FACSorting and high transfection levels were confirmed by fluorescence microscopy. […] By contrast, NE transcript numbers from a transfected clone were 7-fold less than in HL-60 cells. Western blotting confirmed protein expression in the NE-HMy.CIR-A2-transfected cells, although expression was similarly less than in HL-60 cells. […]

[9] = system: patients with myeloid leukemia; assay: Phase I/II PR1 peptide vaccine study; type: in vivo, human
Description: PR1 peptide is injected subcutaneously in incomplete Freund's adjuvant every 3 weeks for 3 injections to induce a PR1 specific host response against the myeloid leukemia. […] Vaccination at 3 dose levels of peptide with a fixed amount of IFA will be conducted, and stopping criteria will be guided by established toxicity criteria.
HLA-A2^+ patients with CML (interferon-resistant or relapsed after BMT), AML (smoldering relapse or ≧2nd CR) or MDS (RAEB or RAEBt) with no detectable antibodies to proteinase 3 (no detectable cANCA) were eligible. Patients that relapsed after BMT or those ineligible for BMT were also eligible for study. Pregnant patients, HIV+ patients, and those with known vasculitis were excluded. Patients were required to have immunosuppression (i.e. cyclosporine, steroids) discontinued 4 weeks prior to study entry.
Secondarily, clinical responses were assessed by standard criteria with bone marrow biopsy, cytogenetic studies (standard chromosome banding) and molecular studies (PCR for bcr-abl or other known abnormalities such as t(15;17), inv16, etc.) 3 weeks after the last vaccination. Patients were seen and evaluated in clinic every 3 weeks during the study period. Both vialed PR1 peptide (NSC698102) and the adjuvant (Montanide ISA-51, NSC675756) were used in this study. […]

NE-HMy.CIR-A2 = assay: Proliferation (BrDU incorporation) of PR1-specific CTL lines with NE-transfected B cells; type: cell-based, human; conditions: CTL lines from two healthy donors
From the text: as §4

In the case of “CCNE1144-152: nonameric peptide derived from cyclin E1, predicted to bind to the HLA-A2 allele”, the “CTL lines that killed HLA-A2 transfected K562 but not non-transfected K562” value [1] is reported as “one of 4”, the “FI peptide/FI PR1 (HLA-A2 stabilization on T2 cells)” value (HLA-A2) is reported as 1.008 and the “donors in whom peptide-stimulated CTL lines killed peptide-pulsed T2 cells” value (peptide-pulsed T2 cells) is reported as 3 of 7.
In the case of “CCNE2144-152: nonameric peptide derived from cyclin E2, predicted to bind to the HLA-A2 allele (ILLDWLLEV)”, the “FI peptide/FI PR1 (HLA-A2 stabilization on T2 cells)” value (HLA-A2) is reported as 1.189 and the “donors in whom peptide-stimulated CTL lines killed peptide-pulsed T2 cells” value (peptide-pulsed T2 cells) is reported as 4 of 7.
For “Influenza nucleoprotein: control influenza peptide, Influenza B nucleoprotein (aa 85-94), known high binding affinity to HLA-A2.1 (KLGEFYNQMM) [reference compound]”, the “Median Channel of Fluorescence of HLA-A2 Expression on T2” value (shortened to “Median Channel”) (HLA-A2.1) was 194 and the “apoptosis of high avidity PR1-CTL” value [2] was “no apoptosis was observed”.
In the case of KLLLALAGL [MY2], the “peptide-specific lysis by CTL line generated against the peptide” value (from here on “peptide-specific lysis”) (T2 cells) is reported as “high specific lysis”, the “specific lysis of HLA-A2+ normal BMC by peptide-specific CTL” value [3] is reported as 45% and the “lysis by MY2-specific CTL lines” value ([3]; marrow cells from HLA-A2.1-positive normal healthy donor, E:T 20:1) is reported as 43%. For the same substance, the “lysis of HLA-A2.1-positive AML marrow cells by peptide-specific CTL” value [4] was “readily lysed”.
In the case of KLNDILLIQL [PR71], the “surface HLA-A2.1 expression on peptide-pulsed T2 cells” value (“surface HLA-A2.1 expression” below) (HLA-A2.1) is reported as “strong peptide binding”.
In the case of KLNDVLLIQL [PR7V], the “surface HLA-A2.1 expression” value (HLA-A2.1) is reported as “strong peptide binding”.
For RLFEQVMRI [MY4], the “inhibition of CFU-GM by MY4 peptide-pulsed CTL” value ([5]; normal marrow, D1 and D2 (HLA identical donors)) was “no inhibition”, the “inhibition of CFU-GM by MY4 peptide-pulsed CTL (CTL1)” value ([5]; patient P1 (M2-AML)) was 63% and the “inhibition of CFU-GM by MY4 peptide-pulsed CTL (CTL1)” value ([5]; patient P2 (M4-AML)) was 34%. The “peptide-specific lysis” value (T2 cells) was “tested similarly”, the “specific lysis of HLA-A2+ normal BMC by peptide-specific CTL” value [3] was “no lysis of normal BMC” and the “lysis of HLA-A2.1-positive AML marrow cells by peptide-specific CTL” value [4] was “killed AML cells, but not normal cells”.
With RLFPDFFTRV [PR2] the “surface HLA-A2.1 expression” value (HLA-A2.1) was “increased surface HLA-A2.1 expression”, the “Median Channel” value (HLA-A2.1) was 273 and the “peptide-specific lysis” value (T2 cells) was “did not demonstrate any significant cytotoxicity”.
With “VLQELNVTV [PR1, HLA-A2.1-restricted nonamer (aa 169-177) derived from proteinase 3]” the “surface HLA-A2.1 expression” value (HLA-A2.1) was “increased surface HLA-A2.1 expression”, the “Median Channel” value (HLA-A2.1) was 294 and the “specific lysis by PR1 specific CTL” value ([6]; Pr3-transfected cells (clone 1.4)) was 36%. For the same substance, the “lysis of negative control targets by PR1 specific CTL” value ([6]; normal marrow cells, HL-60, HMy2.CIR with empty vector (CAT), non-transfected parent line) was “only background lysis”, the “apoptosis of high avidity PR1-CTL” value [2] was “underwent apoptosis” and the “apoptosis of low avidity PR1-CTL” value ([2]; high or low concentrations of PR1) was “did not undergo apoptosis”. The “lysis of CML #3 BM cells by CTL elicited with 0.2 μM PR1” value ([7]; CTL from patient CML #1, E:T 20:1) was 24%±5%, the “lysis of CML #3 BM cells by CTL elicited with 0.2 μM PR1” value ([7]; CTL from patient CML #2, E:T 20:1) was 33%±6% and the “fold greater lysis of CML BM cells, CTL elicited with 0.2 μM vs 20 μM PR1” value ([7]; per cell basis, 4-hr cytotoxicity assay) was about 2 fold. The “peptide-specific lysis” value (T2 cells) was “high specific lysis”, the “stimulation indices (SI) of PR1-specific CTL lines” value [8] was 1.3 and 2.4 and the “PR1-specific CTL immunity elicited (by tetramer staining)” value ([9]; 0.25, 0.5 or 1.0 mg s.c. every 3 weeks for 3 injections) was 6 of 9. For the same substance, the complete remissions ([9]; 9 patients (1 AML and 1 CML patient)) was 2 patients, the “lysis by PR1-specific CTL line” value ([3]; marrow cells from normal healthy donor (D2)) was under 20% and the “specific lysis by CTL specific for PR-1” value ([4]; marrow cells from a patient with CML in blast crisis, E:T 25:1) was 73%. The “specific lysis by PR1-specific CTL line” value ([4]; marrow cells of P1 (CML in chronic phase), E:T 6:1) was 53% and the “stimulation indices (SI) of PR1-specific CTL lines” value (NE-HMy.CIR-A2) was 1.5 and 2.1.
